This is an account of results in ChEMBL document CHEMBL3525922, “Significance of reductive metabolism in human intestine and quantitative prediction of intestinal first-pass metabolism by cytosolic reductive enzymes” (Drug Metab Dispos, 2013).

A short description of series [1]: Unbound intrinsic clearance in human intestinal microsomes at 50 to 1000 nM after 30 to 60 mins by HPLC-MS/MS analysis. As to conditions: 1 µM. The format is ADME, Intestine, Microsome.
Series [2] concerns Liver microsome. Briefly: Unbound intrinsic clearance in human liver microsomes at 50 to 1000 nM after 30 to 60 mins by HPLC-MS/MS analysis. The format is ADME. As to conditions: 1 µM. For orientation: Liver microsomes are vesicles of endoplasmic reticulum, rich in cytochrome P450 enzymes.
Series [3] can be described thus: Unbound intrinsic clearance in human intestinal cytosol at 50 to 1000 nM after 30 to 60 mins by HPLC-MS/MS analysis. As to conditions: 1 µM. The format is ADME, Intestine.
In series [4] the test system is Liver cytosol. Nature of the series: Unbound intrinsic clearance in human liver cytosol at 50 to 1000 nM after 30 to 60 mins by HPLC-MS/MS analysis. The format is ADME, tissue-based. As to conditions: 1 µM.
Series [5] can be described thus: Unbound intrinsic clearance in human intestinal S9 fraction at 50 to 1000 nM after 30 to 60 mins by HPLC-MS/MS analysis. The format is ADME, Intestine. As to conditions: s9, 1 µM.
For series [6], the system named is Liver. Nature of the series: Unbound intrinsic clearance in human liver S9 fraction at 50 to 1000 nM after 30 to 60 mins by HPLC-MS/MS analysis. As to conditions: s9, 1 µM. The format is ADME, subcellular.
The nature of series [7]: Metabolic stability in human intestinal S9 fraction assessed as compound remaining at 50 to 1000 nM after 60 mins by HPLC-MS/MS analysis. The format is ADME, Intestine. As to conditions: read-out: Stability.
Series [8] is described as follows: Intrinsic clearance in human intestinal S9 fraction at 50 to 1000 nM after 60 mins by HPLC-MS/MS analysis. The format is ADME, Intestine. As to conditions: s9, 1 h, 1 µM.
The nature of series [9]: Unbound intrinsic clearance in human intestinal S9 fraction at 50 to 1000 nM after 30 to 60 mins by HPLC-MS/MS analysis in presence of NADH. The format is ADME, Intestine. As to conditions: s9, 1 µM.
Series [10] can be described thus: Unbound intrinsic clearance in human intestinal S9 fraction at 50 to 1000 nM after 30 to 60 mins by HPLC-MS/MS analysis in presence of NADPH. As to conditions: s9, 1 µM. The format is ADME, Intestine.
The nature of series [11]: Metabolic stability in human intestinal cytosol at 200 nM after 60 mins in presence of menadione. The format is ADME, Intestine. As to conditions: 1 h, 0.2 µM.
Series [12] in a line: Drug metabolism in human intestinal cytosol at 200 nM after 60 mins in presence of flufenamic acid. The format is ADME, Intestine. As to conditions: 1 h, 0.2 µM.
Series [13] is described as follows: Drug metabolism in human intestinal cytosol at 200 nM after 60 mins in presence of ondansetron. The format is ADME, Intestine. As to conditions: 1 h, 0.2 µM.
Series [14] is described as follows: Apparent permeability of the compound at 50 uM at pH 7.4 after 240 mins by PAMPA. The format is physicochemical.
Series [15] has as its target T1, carbonyl reductase (Carbonyl reductase [NADPH] 1) (Homo sapiens, UniProt P16152).
T1 sequence (P16152 whole entry): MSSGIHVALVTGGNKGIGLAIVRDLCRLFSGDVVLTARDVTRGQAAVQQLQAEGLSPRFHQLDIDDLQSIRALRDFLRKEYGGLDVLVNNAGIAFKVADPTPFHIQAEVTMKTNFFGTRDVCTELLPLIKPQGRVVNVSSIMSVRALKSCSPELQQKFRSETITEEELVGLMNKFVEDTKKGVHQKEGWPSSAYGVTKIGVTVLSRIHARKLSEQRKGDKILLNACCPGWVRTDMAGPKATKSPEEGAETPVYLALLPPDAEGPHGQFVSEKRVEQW
Briefly: Activity of carbonyl reductase in liver cytosol (unknown origin) assessed as enzyme-mediated drug metabolism. The format is ADME, tissue-based.

Series [16] addresses T1, carbonyl reductase (Carbonyl reductase [NADPH] 1). Nature of the series: Activity of recombinant carbonyl reductase (unknown origin). The format is ADME.
The nature of series [17]: Metabolic stability in human intestinal microsomes assessed as compound remaining at 50 to 1000 nM after 60 mins by HPLC-MS/MS analysis. The format is ADME, Intestine, Microsome. As to conditions: read-out: Stability.
Series [18] is described as follows: Intrinsic clearance in human intestinal microsomes at 50 to 1000 nM after 60 mins by HPLC-MS/MS analysis. As to conditions: 1 h, 1 µM. The format is ADME, Intestine, Microsome.
Series [19] is described as follows: Metabolic stability in human intestinal S9 fraction assessed as compound remaining at 50 to 1000 nM after 60 mins by HPLC-MS/MS analysis in presence of NADH. Details: dose or concentration left out as unconfirmed.
Series [20] can be described thus: Metabolic stability in human intestinal cytosol at 200 nM after 30 mins in presence of menadione. As to conditions: 0.5 h, 0.2 µM. The format is ADME, Intestine.
A short description of series [21]: Drug metabolism in human intestinal cytosol at 200 nM after 30 mins in presence of flufenamic acid. The format is ADME, Intestine. As to conditions: 0.5 h, 0.2 µM.
The nature of series [22]: Drug metabolism in human intestinal cytosol at 200 nM after 30 mins in presence of ondansetron. The format is ADME, Intestine. As to conditions: 0.5 h, 0.2 µM.
For series [23], the system named is Liver microsome. Nature of the series: Drug metabolism in human liver microsomes assessed as hydrolyzed metabolite formation at 10 uM after 19.83 mins by HPLC-MS analysis. The format is ADME. As to conditions: 0.3305 h.
The subject of series [24] is Liver cytosol. Briefly: Drug metabolism in human liver cytosol assessed as reductive metabolite formation at 10 uM after 20.80 mins by HPLC-MS analysis. The format is ADME, tissue-based. As to conditions: 0.346667 h.
The nature of series [25]: Drug metabolism in human liver S9 fraction assessed as hydrolyzed metabolite formation at 10 uM after 19.80 mins by HPLC-MS analysis. The format is ADME, subcellular. As to conditions: s9, 0.33 h.
A short description of series [26]: Drug metabolism in human liver S9 fraction assessed as reductive metabolite formation at 10 uM after 20.76 mins by HPLC-MS analysis. The format is ADME, subcellular. As to conditions: s9, 0.346 h.
Series [27] is described as follows: Drug metabolism in human intestinal cytosol assessed as reductive metabolite formation at 10 uM after 20.74 mins by HPLC-MS analysis. The format is ADME, Intestine. As to conditions: 0.345667 h.
Series [28] is described as follows: Drug metabolism in human intestinal S9 fraction assessed as reductive metabolite formation at 10 uM after 20.69 mins by HPLC-MS analysis. As to conditions: s9, 0.344833 h. The format is ADME, Intestine.
For series [29] the following is noted: human, s9, 1 h, 1 µM.
For series [30], the system named is Liver. Nature of the series: Drug level in human liver S9 fraction treated with 10 uM mebendazole after 19.80 to 20.76 mins by HPLC-MS analysis. The format is ADME, subcellular.
Series [31] concerns Liver cytosol. Nature of the series: Drug level in human liver cytosol treated with 10 uM mebendazole after 20.80 mins by HPLC-MS analysis. The format is ADME, tissue-based. As to conditions: 0.346667 h.
Series [32] is described as follows: Drug level in human intestinal cytosol treated with 10 uM mebendazole after 20.74 mins by HPLC-MS analysis. The format is ADME, Intestine. As to conditions: 0.345667 h.
The nature of series [33]: Drug level in human intestinal S9 fraction treated with 10 uM mebendazole 20.69 mins by HPLC-MS analysis. The format is ADME, Intestine. As to conditions: s9, 0.344833 h.

The term Papp denotes a coefficient for how fast a substance crosses the barrier. On to `O=C1Cc2cc(CCN3CCN(c4nsc5ccccc45)CC3)c(Cl)cc2N1` [ZIPRASIDONE], for which the CL free was determined as 29 µL/min/mg in [1]; 118 µL/min/mg in the series on Liver microsome [2]; 15 µL/min/mg in series [3]; 23 µL/min/mg with Liver cytosol [4]; 28 µL/min/mg in series [5]; 89 µL/min/mg in the series with Liver [6]. For the same compound, the CL free in series [9] is 15 µL/min/mg; in [10] it was 28 µL/min/mg. For the same compound, the remaining at 1 h, up to 1 µM in [7] was > 90%. Also, the CL in series [8] is < 1.8 µL/min/mg. Besides, the Stability result in [11] is recorded as “Stable”. Further, the Drug metabolism entry in series [12] and in series [13] was “metabolite_detected” throughout. Further, the Papp at 4 h, 50 µM in series [14] amounted to 67.2 ×10⁻⁶ cm/s.

For orientation: Km means the concentration of substrate that gives half-maximal velocity. For `O=C(CCCN1CCC(O)(c2ccc(Cl)cc2)CC1)c1ccc(F)cc1` [HALOPERIDOL], the Drug metabolism entry in [12] and in [13] was “metabolite_detected” each time. The apparent permeability coefficient (Papp) at 4 h, 50 µM in series [14] is 33.7 ×10⁻⁶ cm/s. Further, the Km was determined as 250 µM in series [15] and 1200 µM in series [16].

As to `COC(=O)Nc1nc2ccc(C(=O)c3ccccc3)cc2[nH]1` [MEBENDAZOLE], the CL free in the series with Liver microsome [2] worked out at 9 µL/min/mg. Further, the remaining at 1 h, up to 1 µM in [17] and in series [7] was > 90% throughout. In addition, the values for the CL in [18], in series [8] and in series [29] were < 8.8 µL/min/mg, < 1.8 µL/min/mg and < 1.8 µL/min/mg, respectively. Besides, in [19], the remaining at 1 h is > 90%. Moreover, in series [20], the Stability entry is “Stable”. For the same compound, the Drug metabolism entry (in series [21]; in series [22]; with Liver microsome [23]; in the series on Liver cytosol [24]; in [25]; in series [26]) was “metabolite_detected” throughout. Besides, the Drug metabolism result in series [27] and in series [28] was “metabolite_detected” each time. The apparent permeability (Papp) at 4 h, 50 µM in series [14] came to 48.5 ×10⁻⁶ cm/s.

On to `Nc1nc2ccc(C(=O)c3ccccc3)cc2[nH]1`, for which the Drug metabolism result with Liver [30] was “metabolite_detected”.

For `COC(=O)Nc1nc2ccc(C(O)c3ccccc3)cc2[nH]1` (stereo unspecified), the Drug metabolism entry (in the series on Liver cytosol [31]; in the series on Liver [30]; in series [32]; in [33]) was “metabolite_detected” each time.
